How the values were obtained:
Assay in all cases: relative viability (nuclei count vs DMSO), 5 days (fraction); higher = more cells survive
[1] = compound: CC(C)(C)c1nc(-c2cccc(NS(=O)(=O)c3c(F)cccc3F)c2F)c(-c2ccnc(N)n2)s1 [Dabrafenib] + Nc1ncn([C@H]2C[C@H](O)[C@@H](CO)O2)c(=O)n1 [Decitabine] (partner 2 µM)
Outline: (§1)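 Lung cancer cell lines were pin-tool dosed in 1536-well plates on the day after seeding, with either a lone drug or a fixed anchor-drug dose plus five library-drug doses (not always all listed) in √10 steps. Nuclei were counted on 4× images after 5 days. Relative viability is the ratio of treated-well to vehicle-well nuclei counts, with each value a median of duplicate plates.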

[2] = compound: NC(=O)c1ccc(N(C(N)=O)c2c(F)cccc2F)nc1-c1ccc(F)cc1F [VX-702] + O=C(CCCCCCC(=O)Nc1ccccc1)NO [Vorinostat] (partner 1 µM)
Outline: as §1

[3] = compound: CC(C)(C)c1nc(-c2cccc(NS(=O)(=O)c3c(F)cccc3F)c2F)c(-c2ccnc(N)n2)s1 [Dabrafenib] + C[C@@H](Oc1cc(-c2cnn(C3CCNCC3)c2)cnc1N)c1c(Cl)ccc(F)c1Cl [Crizotinib] (partner 1 µM)
Outline: as §1

[4] = compound: NC(=O)c1ccc(N(C(N)=O)c2c(F)cccc2F)nc1-c1ccc(F)cc1F [VX-702] + Cc1cc(Nc2cc(N3CCN(C)CC3)nc(Sc3ccc(NC(=O)C4CC4)cc3)n2)n[nH]1 [Tozasertib] (partner 0.1 µM)
Outline: as §1

In the case of NCI-H322M, the relative viability ([1]; first compound 0.009487 µM) was 0.72, the relative viability ([1]; first compound 0.09487 µM) was 0.656 and the relative viability ([1]; first compound 0.3 µM) was 0.737. It also gave a relative viability ([2]; first compound 0.02 µM) of 0.921, a relative viability ([2]; first compound 0.2 µM) of 0.874 and a relative viability ([2]; first compound 0.6325 µM) of 0.854. For the same cell line, the relative viability ([2]; first compound 2 µM) was 0.93, the relative viability ([3]; first compound 0.009487 µM) was 1.09 and the relative viability ([3]; first compound 0.09487 µM) was 0.876. The relative viability ([3]; first compound 0.3 µM) was 0.941, the relative viability ([4]; first compound 0.02 µM) was 0.486 and the relative viability ([4]; first compound 0.2 µM) was 0.506. For the same cell line, the relative viability ([4]; first compound 0.6325 µM) was 0.496 and the relative viability ([4]; first compound 2 µM) was 0.508.

Work on NCI-H358 yielded a relative viability ([1]; first compound 0.003 µM) of 0.198, a relative viability ([1]; first compound 0.009487 µM) of 0.198 and a relative viability ([1]; first compound 0.03 µM) of 0.186. It also gave a relative viability ([1]; first compound 0.09487 µM) of 0.195, a relative viability ([1]; first compound 0.3 µM) of 0.152 and a relative viability ([2]; first compound 0.02 µM) of 0.675. It also gave a relative viability ([2]; first compound 0.2 µM) of 0.601, a relative viability ([2]; first compound 0.6325 µM) of 0.669 and a relative viability ([2]; first compound 2 µM) of 0.972. The relative viability ([3]; first compound 0.009487 µM) was 0.662, the relative viability ([3]; first compound 0.03 µM) was 0.553 and the relative viability ([3]; first compound 0.09487 µM) was 0.631. The relative viability ([3]; first compound 0.3 µM) was 0.476, the relative viability ([4]; first compound 0.02 µM) was 0.0998 and the relative viability ([4]; first compound 0.2 µM) was 0.0877. The relative viability ([4]; first compound 0.6325 µM) was 0.0872 and the relative viability ([4]; first compound 2 µM) was 0.115.

In the case of NCI-H441, the relative viability ([1]; first compound 0.009487 µM) was 0.253, the relative viability ([1]; first compound 0.03 µM) was 0.279 and the relative viability ([1]; first compound 0.09487 µM) was 0.247. It also gave a relative viability ([1]; first compound 0.3 µM) of 0.203, a relative viability ([2]; first compound 0.02 µM) of 0.876 and a relative viability ([2]; first compound 0.2 µM) of 0.616. For the same cell line, the relative viability ([2]; first compound 0.6325 µM) was 0.637, the relative viability ([2]; first compound 2 µM) was 0.76 and the relative viability ([3]; first compound 0.009487 µM) was 0.746. For the same cell line, the relative viability ([3]; first compound 0.03 µM) was 0.694, the relative viability ([3]; first compound 0.09487 µM) was 0.593 and the relative viability ([3]; first compound 0.3 µM) was 0.697. For the same cell line, the relative viability ([4]; first compound 0.02 µM) was 0.722, the relative viability ([4]; first compound 0.2 µM) was 0.546 and the relative viability ([4]; first compound 0.6325 µM) was 0.478. It also gave a relative viability ([4]; first compound 2 µM) of 0.641.

NCI-H522 was tested, and the relative viability ([1]; first compound 0.009487 µM) was 0.675, the relative viability ([1]; first compound 0.03 µM) was 0.64 and the relative viability ([1]; first compound 0.09487 µM) was 0.755. It also gave a relative viability ([1]; first compound 0.3 µM) of 0.666, a relative viability ([2]; first compound 0.02 µM) of 1.06 and a relative viability ([2]; first compound 0.2 µM) of 0.899. It also gave a relative viability ([2]; first compound 0.6325 µM) of 1.03, a relative viability ([2]; first compound 2 µM) of 1.11 and a relative viability ([4]; first compound 0.02 µM) of 0.522. The relative viability ([4]; first compound 0.2 µM) was 0.551, the relative viability ([4]; first compound 0.6325 µM) was 0.502 and the relative viability ([4]; first compound 2 µM) was 0.588.

NCI-H1299 gave a relative viability ([3]; first compound 0.003 µM) of 1.01, a relative viability ([3]; first compound 0.009487 µM) of 0.91 and a relative viability ([3]; first compound 0.03 µM) of 0.961. The relative viability ([3]; first compound 0.09487 µM) was 0.882 and the relative viability ([3]; first compound 0.3 µM) was 0.806.

NCI-H1395 gave a relative viability ([1]; first compound 0.009487 µM) of 0.726, a relative viability ([1]; first compound 0.03 µM) of 0.738 and a relative viability ([1]; first compound 0.09487 µM) of 0.696. It also gave a relative viability ([1]; first compound 0.3 µM) of 0.66, a relative viability ([2]; first compound 0.02 µM) of 0.701 and a relative viability ([2]; first compound 0.2 µM) of 0.686. For the same cell line, the relative viability ([2]; first compound 0.6325 µM) was 0.683, the relative viability ([2]; first compound 2 µM) was 0.884 and the relative viability ([4]; first compound 0.02 µM) was 0.686. It also gave a relative viability ([4]; first compound 0.2 µM) of 0.767, a relative viability ([4]; first compound 0.6325 µM) of 0.75 and a relative viability ([4]; first compound 2 µM) of 0.966.

Cell Line NCI-H1563 has a relative viability ([3]; first compound 0.003 µM) of 0.865, a relative viability ([3]; first compound 0.009487 µM) of 0.933 and a relative viability ([3]; first compound 0.03 µM) of 0.868. The relative viability ([3]; first compound 0.09487 µM) was 0.908 and the relative viability ([3]; first compound 0.3 µM) was 0.953.

NCI-H1623 was tested, and the relative viability ([4]; first compound 0.02 µM) was 0.444, the relative viability ([4]; first compound 0.2 µM) was 0.415 and the relative viability ([4]; first compound 0.6325 µM) was 0.437. For the same cell line, the relative viability ([4]; first compound 2 µM) was 0.426.

Cell Line NCI-H1648 has a relative viability ([1]; first compound 0.003 µM) of 0.599, a relative viability ([1]; first compound 0.009487 µM) of 0.463 and a relative viability ([1]; first compound 0.09487 µM) of 0.372. The relative viability ([1]; first compound 0.3 µM) was 0.495, the relative viability ([2]; first compound 0.02 µM) was 0.242 and the relative viability ([2]; first compound 0.2 µM) was 0.271. It also gave a relative viability ([2]; first compound 0.6325 µM) of 0.397, a relative viability ([2]; first compound 2 µM) of 0.364 and a relative viability ([4]; first compound 0.02 µM) of 0.419. The relative viability ([4]; first compound 0.2 µM) was 0.42, the relative viability ([4]; first compound 0.6325 µM) was 0.397 and the relative viability ([4]; first compound 2 µM) was 0.426.

Work on NCI-H1703 yielded a relative viability ([3]; first compound 0.003 µM) of 1.09, a relative viability ([3]; first compound 0.009487 µM) of 0.76 and a relative viability ([3]; first compound 0.03 µM) of 0.584. For the same cell line, the relative viability ([3]; first compound 0.09487 µM) was 0.609 and the relative viability ([3]; first compound 0.3 µM) was 0.729.

NCI-H1792 gave a relative viability ([1]; first compound 0.009487 µM) of 0.651, a relative viability ([1]; first compound 0.03 µM) of 0.557 and a relative viability ([1]; first compound 0.09487 µM) of 0.566. For the same cell line, the relative viability ([1]; first compound 0.3 µM) was 0.287, the relative viability ([3]; first compound 0.009487 µM) was 0.974 and the relative viability ([3]; first compound 0.03 µM) was 0.891. For the same cell line, the relative viability ([3]; first compound 0.09487 µM) was 0.833 and the relative viability ([3]; first compound 0.3 µM) was 0.873.

NCI-H1793 was tested, and the relative viability ([1]; first compound 0.009487 µM) was 0.531, the relative viability ([1]; first compound 0.09487 µM) was 0.521 and the relative viability ([1]; first compound 0.3 µM) was 0.418. For the same cell line, the relative viability ([2]; first compound 0.02 µM) was 0.669, the relative viability ([2]; first compound 0.6325 µM) was 0.757 and the relative viability ([2]; first compound 2 µM) was 0.591. For the same cell line, the relative viability ([4]; first compound 0.02 µM) was 0.344, the relative viability ([4]; first compound 0.2 µM) was 0.309 and the relative viability ([4]; first compound 0.6325 µM) was 0.248. The relative viability ([4]; first compound 2 µM) was 0.322.

NCI-H2228 was tested, and the relative viability ([2]; first compound 0.02 µM) was 0.536, the relative viability ([2]; first compound 0.2 µM) was 0.631 and the relative viability ([2]; first compound 0.6325 µM) was 0.467. The relative viability ([2]; first compound 2 µM) was 0.896, the relative viability ([3]; first compound 0.003 µM) was 0.457 and the relative viability ([3]; first compound 0.009487 µM) was 0.504. The relative viability ([3]; first compound 0.03 µM) was 0.52, the relative viability ([3]; first compound 0.09487 µM) was 0.495 and the relative viability ([3]; first compound 0.3 µM) was 0.571. For the same cell line, the relative viability ([4]; first compound 0.02 µM) was 0.314, the relative viability ([4]; first compound 0.2 µM) was 0.319 and the relative viability ([4]; first compound 0.6325 µM) was 0.199. It also gave a relative viability ([4]; first compound 2 µM) of 0.23.

NCI-H2342 showed a relative viability ([1]; first compound 0.003 µM) of 0.748, a relative viability ([1]; first compound 0.009487 µM) of 0.723 and a relative viability ([1]; first compound 0.03 µM) of 0.657. The relative viability ([1]; first compound 0.09487 µM) was 0.781, the relative viability ([1]; first compound 0.3 µM) was 0.774 and the relative viability ([2]; first compound 0.02 µM) was 0.717. It also gave a relative viability ([2]; first compound 0.2 µM) of 0.956, a relative viability ([2]; first compound 0.6325 µM) of 0.832 and a relative viability ([2]; first compound 2 µM) of 0.867. It also gave a relative viability ([4]; first compound 0.02 µM) of 0.527, a relative viability ([4]; first compound 0.2 µM) of 0.468 and a relative viability ([4]; first compound 0.6325 µM) of 0.484. The relative viability ([4]; first compound 2 µM) was 0.524.

From the supplement of paper PMC10307832
